Test results reported in PubChem BioAssay AID248 (DTP/NCI, 2004).
Several values for one entry are separate records, joined by “and”; a condition that tells them apart may be missing. Identical values can stand only once. Inconclusive results and toxic doses are left out. No stated cut-off is given here; in the data, active means T/C of 150% or more; inactive means T/C below 125%.

Test system: L1210 leukemia ip in BDF1 mice, survival T/C
Assay: NCI In Vivo Anticancer Drug Screen. Data for tumor model L1210 Leukemia (intraperitoneal) in B6D2F1 (BDF1) mice
Details: endpoint: mean survival time, higher = longer survival
Outline: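 Each compound was tested against a transplantable tumor grown in mice. The endpoint was survival, with treated animals benchmarked against vehicle controls as a simple ratio.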

[1] = dose: 100.0 mg/kg/injection, schedule: Q01DX001 (ip), vehicle: saline
[2] = dose: 200.0 mg/kg/injection, schedule: Q01DX001 (ip), vehicle: saline
[3] = dose: 400.0 mg/kg/injection, schedule: Q01DX001 (ip), vehicle: saline
[4] = dose: 100.0 mg/kg/injection, schedule: Q04DX002 (ip), vehicle: Klucel (hydroxypropylcellulose) (HPC)
[5] = dose: 200.0 mg/kg/injection, schedule: Q04DX002 (ip), vehicle: Klucel (hydroxypropylcellulose) (HPC)
[6] = dose: 400.0 mg/kg/injection, schedule: Q04DX002 (ip), vehicle: Klucel (hydroxypropylcellulose) (HPC)
[7] = dose: 100.0 mg/kg/injection, schedule: Q04DX003 (ip), vehicle: Klucel (hydroxypropylcellulose) (HPC)
[8] = dose: 200.0 mg/kg/injection, schedule: Q04DX003 (ip), vehicle: Klucel (hydroxypropylcellulose) (HPC)
[9] = dose: 400.0 mg/kg/injection, schedule: Q01DX001 (ip), vehicle: Klucel (hydroxypropylcellulose) (HPC)
[10] = dose: 100.0 mg/kg/injection, schedule: Q04DX003 (ip), vehicle: saline
[11] = dose: 200.0 mg/kg/injection, schedule: Q04DX003 (ip), vehicle: saline
[12] = dose: 100.0 mg/kg/injection, schedule: Q04DX003 (ip), vehicle: saline with Tween-80
[13] = dose: 200.0 mg/kg/injection, schedule: Q04DX003 (ip), vehicle: saline with Tween-80
[14] = dose: 400.0 mg/kg/injection, schedule: Q04DX003 (ip), vehicle: saline with Tween-80

Measured: T/C

CC(=O)OCC/C(=C/c1cc2ccccc2c2ccccc12)[N+](=O)[O-]
inactive: [1] 100 % of control | [2] 105 % of control | [3] 113 % of control

CCn1c(C)nc2cc(N=Cc3ccc(N(CCCl)CCCl)cc3C)ccc21
inactive: dose: 87.5 mg/kg/injection, schedule: Q04DX002 (ip), vehicle: Klucel (hydroxypropylcellulose) (HPC) 102 % of control | [4] 95 % of control | dose: 175.0 mg/kg/injection, schedule: Q04DX002 (ip), vehicle: Klucel (hydroxypropylcellulose) (HPC) 102 % of control | [5] 102 % of control | dose: 350.0 mg/kg/injection, schedule: Q04DX002 (ip), vehicle: Klucel (hydroxypropylcellulose) (HPC) 98 % of control | [6] 102 % of control

O=C(O)CC(c1ccccc1)C(Nc1ccc2ccccc2c1)C(=O)O (stereo unspecified)
inactive: [4] 89 % of control | [5] 100 % of control | [6] 96 % of control

[N-]=[N+]=C1C(C(=O)c2ccccc2)=NN=C1c1ccccc1
inactive: dose: 50.0 mg/kg/injection, schedule: Q04DX003 (ip), vehicle: Klucel (hydroxypropylcellulose) (HPC) 97 % of control | [7] 104 % of control | [8] 108 % of control

c1ccc2c[n+](CC[n+]3ccc4ccccc4c3)ccc2c1
inactive: dose: 75.0 mg/kg/injection, schedule: Q04DX003 (ip), vehicle: saline 98 % of control

COc1ccc(C(=O)Nc2ccc(F)cc2)cc1
inactive: dose: 100.0 mg/kg/injection, schedule: Q01DX009 (ip), vehicle: carboxymethylcellulose (CMC) 100 % of control and 105 % of control | [4] 115 % of control | dose: 100.0 mg/kg/injection, schedule: Q04DX002 (ip), vehicle: carboxymethylcellulose (CMC) 103 % of control | dose: 100.0 mg/kg/injection, schedule: Q04DX003 (ip), vehicle: carboxymethylcellulose (CMC) 101 % of control | dose: 200.0 mg/kg/injection, schedule: Q01DX009 (ip), vehicle: carboxymethylcellulose (CMC) 94 % of control and 89 % of control | [5] 102 % of control | dose: 200.0 mg/kg/injection, schedule: Q04DX002 (ip), vehicle: carboxymethylcellulose (CMC) 93 % of control and 95 % of control | dose: 200.0 mg/kg/injection, schedule: Q04DX003 (ip), vehicle: carboxymethylcellulose (CMC) 106 % of control | dose: 400.0 mg/kg/injection, schedule: Q01DX009 (ip), vehicle: carboxymethylcellulose (CMC) 87 % of control | [6] 108 % of control | dose: 400.0 mg/kg/injection, schedule: Q04DX002 (ip), vehicle: carboxymethylcellulose (CMC) 93 % of control and 100 % of control | dose: 400.0 mg/kg/injection, schedule: Q04DX003 (ip), vehicle: carboxymethylcellulose (CMC) 102 % of control

Nc1ccc(-c2nc3nc(N)nc(N)c3nc2-c2ccc(N)cc2)cc1
inactive: dose: 30.0 mg/kg/injection, schedule: Q01DX Z (ip), vehicle: carboxymethylcellulose (CMC) 102 % of control | dose: 60.0 mg/kg/injection, schedule: Q01DX Z (ip), vehicle: carboxymethylcellulose (CMC) 95 % of control | dose: 120.0 mg/kg/injection, schedule: Q01DX Z (ip), vehicle: carboxymethylcellulose (CMC) 104 % of control | dose: 240.0 mg/kg/injection, schedule: Q01DX Z (ip), vehicle: carboxymethylcellulose (CMC) 101 % of control

Cc1cccc(C)c1Oc1ccc([N+](=O)[O-])cc1[N+](=O)[O-]
inactive: dose: 100.0 mg/kg/injection, schedule: Q01DX001 (ip), vehicle: Klucel (hydroxypropylcellulose) (HPC) 105 % of control | dose: 200.0 mg/kg/injection, schedule: Q01DX001 (ip), vehicle: Klucel (hydroxypropylcellulose) (HPC) 112 % of control | [9] 117 % of control

COc1ccc(/C=C/[N+](=O)[O-])cc1O
inactive: dose: 25.0 mg/kg/injection, schedule: Q01DX009 (ip), vehicle: saline 110 % of control | dose: 25.0 mg/kg/injection, schedule: Q04DX003 (ip), vehicle: saline 98 % of control | dose: 50.0 mg/kg/injection, schedule: Q01DX009 (ip), vehicle: saline 102 % of control | dose: 50.0 mg/kg/injection, schedule: Q04DX003 (ip), vehicle: saline 98 % of control | [10] 100 % of control | [11] 86 % of control

COC(OC)c1[nH]c(=S)[nH]c(=O)c1C
inactive: [12] 107 % of control | [13] 105 % of control | [14] 105 % of control

IC1CCCCC1[n+]1ccccc1 (stereo unspecified)
inactive: dose: 100.0 mg/kg/injection, schedule: Q04DX003 (sc), vehicle: olive oil, sesame oil, peanut oil 105 % of control | dose: 200.0 mg/kg/injection, schedule: Q04DX003 (sc), vehicle: olive oil, sesame oil, peanut oil 103 % of control | dose: 400.0 mg/kg/injection, schedule: Q04DX003 (sc), vehicle: olive oil, sesame oil, peanut oil 101 % of control

Fc1cc(F)c(F)c(Oc2c(F)c(F)c(-c3c(F)c(F)c(F)c(F)c3F)c(F)c2F)c1F
inactive: dose: 100.0 mg/kg/injection, schedule: Q01DX009 (ip), vehicle: saline with Tween-80 104 % of control | dose: 200.0 mg/kg/injection, schedule: Q01DX009 (ip), vehicle: saline with Tween-80 90 % of control | dose: 400.0 mg/kg/injection, schedule: Q01DX009 (ip), vehicle: saline with Tween-80 101 % of control

COc1ccc(-c2oc3cc4c(cc3c2-c2ccc(OC)cc2)CCCC4)cc1
inactive: [12] 98 % of control | [13] 98 % of control | [14] 102 % of control

COC(=O)Nc1cccc2c1C=CC(C#N)N2C(=O)OC (stereo unspecified)
inactive: dose: 100.0 mg/kg/injection, schedule: Q01DX009 (ip), vehicle: Klucel (hydroxypropylcellulose) (HPC) 93 % of control | [7] 87 % of control | dose: 200.0 mg/kg/injection, schedule: Q01DX009 (ip), vehicle: Klucel (hydroxypropylcellulose) (HPC) 100 % of control | [8] 91 % of control | dose: 400.0 mg/kg/injection, schedule: Q04DX003 (ip), vehicle: Klucel (hydroxypropylcellulose) (HPC) 100 % of control

COP1(=O)CC=C(C)C1 (stereo unspecified)
inactive: [1] 98 % of control | [2] 98 % of control | [3] 106 % of control

CC(=O)Nc1cccc(OC(=O)Nc2ccc([N+](=O)[O-])cc2Cl)c1
inactive: dose: 100.0 mg/kg/injection, schedule: Q01DX009 (ip), vehicle: saline 98 % of control | [10] 97 % of control | dose: 200.0 mg/kg/injection, schedule: Q01DX009 (ip), vehicle: saline 98 % of control | [11] 107 % of control | dose: 400.0 mg/kg/injection, schedule: Q01DX009 (ip), vehicle: saline 102 % of control | dose: 400.0 mg/kg/injection, schedule: Q04DX003 (ip), vehicle: saline 105 % of control

COc1ccc(C(OCC2OC(n3nnc4c(=O)[nH]c(N)nc43)CC2OC(C)=O)(c2ccccc2)c2ccc(OC)cc2)cc1 (stereo unspecified)
inactive: dose: 12.5 mg/kg/injection, schedule: Q01DX001 (ip), vehicle: Klucel (hydroxypropylcellulose) (HPC) 103 % of control | dose: 25.0 mg/kg/injection, schedule: Q01DX001 (ip), vehicle: Klucel (hydroxypropylcellulose) (HPC) 93 % of control | dose: 50.0 mg/kg/injection, schedule: Q01DX001 (ip), vehicle: Klucel (hydroxypropylcellulose) (HPC) 97 % of control | [9] 100 % of control
